Results taken from patent US4248882A, “Treating diabetes-associated complications with hydantoin amines” (Pfizer Inc., priority 1980, dated 1981).
Where a name gives a salt, the structure may show the parent alone.

Tests used:
aldose reductase = assay: inhibition of aldose reductase enzyme activity (partially purified enzyme from human placenta); format: biochemical; details: percent inhibition of enzyme activity
Experimental: The compounds of Example 2 and 4 were tested for their ability to reduce or inhibit aldose reductase enzyme activity, following the procedure described in U.S. Pat. No. 3,821,383 and based on the procedure of Hayman et. al., Journal of Biological Chemistry, 240 877 (1965). The substrate employed was partially purified aldose reductase enzyme obtained from human placenta. The results obtained with each compound at a concentration of 10^-6 M are expressed as percent inhibition of enzyme activity.

[1] = test system: sorbitol accumulation in the sciatic nerve; assay: inhibition of sorbitol accumulation in the sciatic nerve of streptozotocinized (diabetic) rats; format: in vivo; details: oral 0.25 mg/kg at 4, 8 and 24 hours following streptozotocin; sorbitol in sciatic nerves measured 27 hours after induction of diabetes; versus untreated animal
Experimental: The compounds of Example 2 and 4 were tested for their ability to reduce or inhibit sorbitol accumulation in the sciatic nerve of streptozotocinized (i.e. diabetic) rats by the procedure essentially described in U.S. Pat. No. 3,821,383. In the present study, the amount of sorbitol accumulation in the sciatic nerves was measured 27 hours after induction of diabetes. The compounds were administered orally at the dose levels of 0.25 mg/kg at 4, 8 and 24 hours following the administration of streptozotocin. The results obtained in this manner are presented below in terms of percent inhibition (%) afforded by the test compound as compared to the case where no compound was administered (i.e. the untreated animal, where sorbitol levels normally rise from approximately […]. tissue to as high as 400 mM/g. tissue in the 27 hour test period): […]

Row | % Inhibition at 10^-6 M (aldose reductase) | SMILES | % Inhibition at 0.25 mg/kg [1]
1 | 58% | Nc1cc(Cl)cc2c1OCCC21NC(=O)NC1=O (stereo not shown) [Example 2, 8-Amino-6-chloro-spiro[4H-2,3-dihydro-1-benzopyran-4,4'-imidazolidine]-2',5'-dione hydrochloride] | 17%
2 | 40% | Nc1cc(F)cc2c1OCC[C@]21NC(=O)NC1=O [Example 4, 4S-8-amino-6-fluoro-spiro[4H-2,3-dihydro-1-benzopyran-4,4'-imidazolidine]-2',5'-dione hydrochloride] | 40%
